Consider twelve compounds from patent publication US8362011B2, “Tricyclic triazolic compounds” (Laboratories del Dr. Esteve, S.A., priority 2007, dated 2013).

“And” between values parts separate entries of the source, which are not always exact repeats. Equal values may be shown once. Where only a bound is given, the exact number is not on record here.

One data set addresses T1, σ1-receptor (Cavia porcellus, UniProt Q60492).
T1 construct: Guinea pig brains were homogenized in 10 vols; (w/v) of Tris-HCl 50 mM 0.32 M sucrose; from tissue; host or cells: guinea pig brain membranes
As to the kind of experiment: σ1-receptor binding assay, [3H]-(+)-pentazocine, guinea pig brain membranes. The settings on record: [3H]-(+)-pentazocine 5.0 nM; for % Displacement (10^−6 M): 10^−6 M compound. The protocol:
Brain membrane preparation and binding assays for the σ1-receptor were performed as described (DeHaven-Hudkins, D. L., L.C. Fleissner, and F. Y. Ford-Rice, 1992, Characterization of the binding of [^3H](+)pentazocine to σ recognition sites in guinea pig brain, Eur. J. Pharmacol. 227, 371-378) with some modifications. Guinea pig brains were homogenized in 10 vols. (w/v) of Tris-HCl 50 mM 0.32 M sucrose, pH 7.4, with a Kinematica Polytron PT 3000 at 15000 r.p.m. for 30 s. The homogenate was centrifuged at 1000 g for 10 min at 4° C. and the supernatants collected and centrifuged again at 48000 g for 15 min at 4° C. The pellet was resuspended in 10 volumes of Tris-HCl buffer (50 mM, pH 7.4), incubated at 37° C. for 30 min, and centrifuged at 48000 g for 20 min at 4° C. Following this, the pellet was re-suspended in fresh Tris-HCl buffer (50 mM, pH 7.4) and stored on ice until use.
The radioligand used was [^3H]-(+)-pentazocine at 5.0 nM and the final volume was 200 μl. The incubation was initiated with the addition of 100 μA of membrane at a final tissue concentration of approximately 5 mg tissue net weight/mL and the incubation time was 150 m. at 37° C. After incubation, the membranes were collected onto pretreated glass fiber filterplate (MultiScreen-FC, Millipore), with polyethylenimine 0.1%. The filters were washed two times with 200 μA of washing buffer (50 mM Tris Cl, pH=7.4) and then 25 μA of Ecoscint H liquid scintillation cocktail were added. Microplates were allowed to set for several hours and then quantified by liquid scintillation spectrophotometry (1450 Microbeta, Wallac). Nonspecific binding was determined with 1 μM haloperidol.

T1 sequence (Q60492 whole entry): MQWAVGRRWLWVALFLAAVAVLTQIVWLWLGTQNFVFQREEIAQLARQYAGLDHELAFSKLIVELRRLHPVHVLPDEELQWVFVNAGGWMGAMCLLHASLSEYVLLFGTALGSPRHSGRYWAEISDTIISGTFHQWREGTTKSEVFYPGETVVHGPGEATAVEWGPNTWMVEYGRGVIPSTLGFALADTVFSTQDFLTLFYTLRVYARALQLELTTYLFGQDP

As a reminder, the melting point is the temperature, or range, at which the solid turns liquid. In the case of `c1ccc(CN2C[C@@H]3[C@@H](C2)OCc2cnnn23)cc1` (relative stereo) [Example 4, (5a,8a-trans)-7-benzyl-4,5a,6,7,8,8a-hexahydropyrrolo[3,4-b][1,2,3] triazolo[1,5-d][1,4]oxazine], the melting point was in the range of 101 to 102 °C. Moreover, the “% Displacement (10^−6 M)” value at σ1-receptor is less than 50%.

For orientation: Ki means the equilibrium dissociation constant of an inhibitor or competing ligand from its target. As to `c1ccc(CN2C[C@@H]3[C@@H](C2)OCc2c(-c4ccccc4)nnn23)cc1` (relative stereo) [Example 11, (5a,8a-trans)-7-benzyl-3-phenyl-4,5a,6,7,8,8a-hexahydropyrrolo[3,4-b][1,2,3]triazolo[1,5-d][1,4]oxazine], the melting point fell in the range of 154 to 155 °C. For the same compound, at σ1-receptor, the Ki came out at 26.9 ± 4.4 nM.

Turning to `FC(F)(F)c1ccc(-c2nnn3c2CO[C@@H]2CN(Cc4ccccc4)C[C@H]23)cc1` (relative stereo) [Example 6, (5a,8a-trans)-7-benzyl-3-(4-(trifluoromethyl)phenyl)-4,5a,6,7,8,8a-hexa hydropyrrolo[3,4-b][1,2,3]triazolo[1,5-d][1,4]oxazine], the melting point lay within 137 to 138 °C. The same compound displayed an inhibitory constant (Ki) on σ1-receptor of 31.3 ± 8.7 nM.

In the case of `Clc1ccc(-c2nnn3c2CO[C@@H]2CN(Cc4ccccc4)C[C@H]23)cc1` (relative stereo) [Example 9, (5a,8a-trans)-7-benzyl-3-(4-chlorophenyl)-4,5a,6,7,8,8a-hexahydro pyrrolo[3,4-b][1,2,3]triazolo[1,5-d][1,4]oxazine], the melting point was in the range of 197 to 198 °C. In addition, the “% Displacement (10^−6 M)” value on σ1-receptor was 87%.

`COc1ccc(CN2C[C@@H]3[C@@H](C2)OCc2c(C)nnn23)cc1` (relative stereo) [Example 2, (5a,8a-trans)-7-(4-methoxybenzyl)-3-methyl-4,5a,6,7,8,8a-hexahydro pyrrolo[3,4-b][1,2,3]triazolo[1,5-d][1,4]oxazine]: at σ1-receptor, the Ki is greater than 1000 nM.

`O=C(CCc1ccccc1)N1C[C@@H]2[C@@H](C1)OCc1c(-c3ccccc3)nnn12` (relative stereo) [Example 28, 3-phenyl-1-((5a,8a-trans)-3-phenyl-5a,6,8,8a-tetrahydropyrrolo[3,4-b][1,2,3]triazolo[1,5-d][1,4]oxazin-7(4H)-yl)propan-1-one] gave a melting point of 205 to 206 °C. At σ1-receptor, the affinity corresponds to a Ki of 563 nM.

Take `Cc1nnn2c1CO[C@@H]1CN(Cc3ccccc3)C[C@H]12` (relative stereo) [Example 5, (5a,8a-trans)-7-benzyl-3-methyl-4,5a,6,7,8,8a-hexahydropyrrolo[3,4-b][1,2,3]triazolo[1,5-d][1,4]oxazine]: the melting point lay in the range of 103 to 104 °C. At σ1-receptor, this compound gave an inhibitory constant (Ki) greater than 1000 nM.

In turn, `c1ccc(-c2nnn3c2CO[C@@H]2CNC[C@H]23)cc1` (relative stereo) [Example 13, (5a,8a-trans)-3-phenyl-4,5a,6,7,8,8a-hexahydropyrrolo[3,4-b][1,2,3] triazolo[1,5-d][1,4]oxazine] yielded a melting point of 165 to 167 °C. Moreover, the Ki on σ1-receptor is 283 nM and 262 nM.

`CCc1nnn2c1CO[C@@H]1CN(Cc3ccccc3)C[C@H]12` (relative stereo) [Example 8, (5a,8a-trans)-7-benzyl-3-ethyl-4,5a,6,7,8,8a-hexahydropyrrolo[3,4-b][1,2,3]triazolo[1,5-d][1,4]oxazine] returned a melting point of 106 to 107 °C. In addition, the Ki at σ1-receptor was determined as 375 ± 1.6 nM.

`CCc1nnn2c1CO[C@@H]1CN(Cc3ccc(OC)cc3)C[C@H]12` (relative stereo) [Example 3, (5a,8a-trans)-3-ethyl-7-(4-methoxybenzyl)-4,5a,6,7,8,8a-hexahydro pyrrolo[3,4-b][1,2,3]triazolo[1,5-d][1,4]oxazine]: at σ1-receptor, the affinity, expressed as Ki, was 298 ± 76.2 nM.

As for `CCCCCN1C[C@@H]2[C@@H](C1)OCc1c(-c3ccccc3)nnn12` (relative stereo) [Example 41, (5a,8a-trans)-7-pentyl-3-phenyl-4,5a,6,7,8,8a-hexahydropyrrolo[3,4-b][1,2,3]triazolo[1,5-d][1,4]oxazine], the Ki on σ1-receptor was 5.47 nM and 6.79 nM.

Compound `CCCC(=O)N1C[C@@H]2[C@@H](C1)OCc1c(-c3ccccc3)nnn12` (relative stereo) [Example 29, 1-((5a,8a-trans)-3-phenyl-5a,6,8,8a-tetrahydropyrrolo[3,4-b][1,2,3]triazolo[1,5-d][1,4]oxazin-7(4H)-yl)butan-1-one] had a melting point of 202 to 204 °C. Further, the inhibition constant Ki at σ1-receptor is 334 nM and 341 nM.
